The record followed here is patent US20210170033A1, “NOVEL CONJUGATES OF A PHARMACEUTICAL AGENT AND A MOIETY CAPABLE OF BINDING TO A GLUCOSE SENSING PROTEIN” (SANOFI, priority 2017, published 2021).

For this experiment, the system named is A2780 cells. In words: Deoxy-glucose uptake assay in A2780 cells (14C 2-deoxy-D-glucose transport). The format is cell-based. The following applies: Homo sapiens, 20 min; inhibition of 14C 2-deoxy-D-glucose transport into A2780 cells; 20 min compound incubation; read-out: IC50. Here is the method:
1. Deoxy-Glucose Uptake Assay in A2780 Cells:
For measurement of ^14C 2-deoxy-D-glucose transport into A2780 cells, cells were seeded in 96-well plates (Cytostar-T Plates Perkin Elmer, 70,000 cells/180 μl/well) in medium complete (RPMI1640+Glutamax (Life technologies #61870)) and grown for 48 hours. After 48 h, cells were washed once with 180 μL KRB (Krebs Ringer Bicarbonate) buffer, and stimulated in a dose dependent manner by adding 10 μL of test compound dilution 0-1.1 mM (11 times higher concentration than final) or 10 μL of 1.1 mM Cytochalasin B solution as negative control, to 90 μL KRB buffer and incubated for 20 minutes. After compound stimulation, the transport of ^14C 2-deoxy-D-glucose was started by adding of 50 μL 2-^14C[U] 2-deoxy-D-glucose solution (109.1 μM 2-deoxy-D-glucose cold and 33 μM 2-^14C[U] 2-deoxy-D-glucose 0.1 μCi/well) for 20 minutes. Transport was stopped by adding 50 μL/well 96 μM Cytochalasin B solution. Plates were measured in a 96-well Wallac Microbeta device. The cpm (counts per minute) values were used to determine the % inhibition values for the test compounds within each experiment. In a first step, the mean background value generated by Cytochalasin B (a potent glucose transporter inhibitor) treated cells, was subtracted from the mean values of the treated cells. All mean values were obtained from triplicates. For %-Inhibition results, the mean value of the untreated cells (just KRB) was set as 100%. All other mean values were calculated to this relation. IC50 were obtained by regression analysis of dose response curve with 7 or 14 concentrations, respectively, for each compound.

Structures are written as SMILES.

A word on the IC50: it is the concentration at which inhibition is half-maximal.

Take `CCOC(=O)c1cccc(COc2c(Cl)cc(C(=O)N[C@H]3[C@@H](OC)O[C@H](CO)[C@@H](O)[C@@H]3O)c(C)c2Cl)n1` [Example 270]: the IC50 worked out at 27.8 µM.
With `CCOC(=O)c1cccc(COc2c(Cl)cc(C(=O)O[C@H]3[C@@H](OC)O[C@H](CO)[C@@H](O)[C@@H]3O)c(C)c2Cl)n1` [Example 271] the figure was 4.2 µM.
`C#CCCC(=O)Nc1cc(COc2c(Cl)cc(C(=O)N[C@H]3[C@@H](OC)O[C@H](CO)[C@@H](O)[C@@H]3O)c(C)c2Cl)cnc1OC` [Example 274]: the IC50 was determined as 17.9 µM.
In the case of `C#CCCCn1c(COc2c(Cl)cc(C(=O)O[C@@H]3[C@@H](O)[C@@H](OC)O[C@H](CO)[C@H]3O)c(C)c2Cl)nc2ccccc21` [Example 275], the IC50 amounted to 0.1 µM.
Take `COc1cc(C(=O)O[C@H]2[C@@H](OC)O[C@H](CO)[C@@H](O)[C@@H]2O)cc(Cl)c1OCc1cccc(OCC(=O)OC(C)(C)C)c1` [Example 276]: the IC50 was 14.4 µM.
As to `CO[C@H]1O[C@H](CO)[C@@H](O)[C@H](O)[C@H]1OC(=O)c1cc(Cl)c(OCc2cccc(CNC(=O)[C@H](CC(C)C)NC(=O)OC(C)(C)C)c2)c(Cl)c1C` [Example 278], the IC50 turned out to be 1.6 µM.
The value for `CO[C@H]1O[C@H](CO)[C@@H](O)[C@H](O)[C@H]1OC(=O)c1cc(Cl)c(OCc2cccc(CNC(=O)[C@H](CC(C)C)N(C)C(=O)OC(C)(C)C)c2)c(Cl)c1C` [Example 279] was 3.4 µM.
The value for `C#CCCCn1c(COc2c(Cl)cc(C(=O)N[C@H]3[C@@H](OC)O[C@H](CO)[C@@H](O)[C@@H]3O)c(C)c2Cl)cc2ccccc21` [Example 280] was 5.9 µM; that for `CCOC(=O)c1nnsc1COc1c(Cl)cc(C(=O)O[C@H]2[C@@H](OC)O[C@H](CO)[C@@H](O)[C@@H]2O)c(C)c1Cl` [Example 282] was 0.3 µM.
With `CCOC(=O)c1nnsc1COc1c(Cl)cc(C(=O)N[C@H]2[C@@H](OC)O[C@H](CO)[C@@H](O)[C@@H]2O)c(C)c1Cl` [Example 283], the IC50 worked out at 6.7 µM.
With `COC(=O)c1ccc(COc2c(Cl)cc(C(=O)N[C@H]3[C@@H](OC)O[C@H](CO)[C@@H](O)[C@@H]3O)c(C)c2Cl)nc1` [Example 284] the figure was 14.2 µM; with `CO[C@H]1O[C@H](CO)[C@@H](O)[C@H](O)[C@H]1OC(=O)c1cc(Cl)c(OCc2cccc(CNC(=O)[C@@H](N)CC(C)C)c2)c(Cl)c1C` [Example 285], 23.2 µM; with `CN[C@@H](CC(C)C)C(=O)NCc1cccc(COc2c(Cl)cc(C(=O)O[C@H]3[C@@H](OC)O[C@H](CO)[C@@H](O)[C@@H]3O)c(C)c2Cl)c1` [Example 286], 4.8 µM.
Regarding `CO[C@H]1O[C@H](CO)[C@@H](O)[C@H](O)[C@H]1NC(=O)c1cc(Cl)c(OCc2ccc(C(=O)OC(C)(C)C)cc2)c(Cl)c1C` [Example 296], the IC50 was determined as 7.6 µM.
With `CO[C@H]1O[C@H](CO)[C@@H](O)[C@H](O)[C@H]1NC(=O)c1cc(Cl)c(OCc2ccccc2)cc1C` [Example 297] the figure was 2.2 µM.
Take `COc1c(C(=O)O[C@H]2[C@@H](OC)O[C@H](CO)[C@@H](O)[C@@H]2O)ccc(OCc2ccccc2)c1Cl` [Example 298]: the IC50 was 27.2 µM.
On to `COC(=O)/C=C/c1ccc(COc2c(Cl)cc(C(=O)O[C@H]3[C@@H](OC)O[C@H](CO)[C@@H](O)[C@@H]3O)cc2OC)cc1` [Example 299], for which the IC50 amounted to 45.8 µM.
For `CO[C@H]1O[C@H](CO)[C@@H](O)[C@H](O)[C@H]1OC(=O)c1cc(Cl)c(OCc2ccccc2)cc1C` [Example 300], the IC50 was 6.9 µM.
On to `CO[C@H]1O[C@H](CO)[C@@H](O)[C@H](O)[C@H]1NC(=O)c1cc(Cl)c(OCc2nc3ccccc3n2CCCCCC(=O)OC(C)(C)C)c(Cl)c1C` [Example 301], for which the 50% inhibitory concentration (IC50) came to 0.1 µM.
For `COc1ncc(COc2c(Cl)cc(C(=O)N[C@H]3[C@@H](OC)O[C@H](CO)[C@@H](O)[C@@H]3O)c(C)c2Cl)cc1NCC(=O)OC(C)(C)C` [Example 303], the IC50 was found to be 0.2 µM.
With `CO[C@H]1O[C@H](CO)[C@@H](O)[C@H](O)[C@H]1NC(=O)c1cc(Cl)c(OCc2cccc(OCC(=O)OC(C)(C)C)c2)c(Cl)c1C` [Example 307], the IC50 came out at 24 µM.
With `COC(=O)/C=C/c1ccc(COc2c(Cl)cc(C(=O)O[C@H]3[C@@H](OC)O[C@H](CO)[C@@H](O)[C@@H]3O)c(C)c2Cl)cc1` [Example 317] the figure was 14.7 µM; with `COC(=O)CCCCCNC(=O)c1cccc(COc2c(Cl)cc(C(=O)N[C@H]3[C@@H](OC)O[C@H](CO)[C@@H](O)[C@@H]3O)c(C)c2Cl)c1` [Example 323], 28 µM; with `COc1c(C(=O)N[C@H]2[C@H](OC)O[C@H](CO)[C@@H](O)[C@@H]2O)cc(Cl)c(OCc2ccccc2)c1Cl` [Example 332], 31.3 µM.
With `COc1cc(C(=O)N[C@H]2[C@H](OC)O[C@H](CO)[C@@H](O)[C@@H]2O)cc(Cl)c1OCCc1ccccc1` [Example 333] the figure was 29.1 µM; with `CO[C@@H]1O[C@H](CO)[C@@H](O)[C@H](O)[C@H]1NC(=O)c1cc(Cl)cc(OCc2ccccc2)c1` [Example 334], 30.6 µM.
The value for `CO[C@@H]1O[C@H](CO)[C@@H](O)[C@H](O)[C@H]1NC(=O)c1cc(Cl)c(OCc2ccccc2)c(Cl)c1C` [Example 337] was 36.4 µM; that for `CO[C@@H]1O[C@H](CO)[C@@H](O)[C@H](O)[C@H]1NC(=O)c1cc(Cl)c(OCc2ccccc2)c(Cl)c1` [Example 338] was 32.2 µM.
Take `CO[C@H]1O[C@H](CO)[C@@H](O)[C@H](O)[C@H]1OC(=O)c1cc(Cl)c(OCc2cccc(CNCCCC(=O)OC(C)(C)C)c2)c(Cl)c1C` [Example 348]: the IC50 was found to be 31 µM.
With `COc1cc(OCc2ccccc2)c(Cl)cc1C(=O)O[C@@H]1[C@@H](O)[C@@H](OC)O[C@H](CO)[C@H]1O` [Example 350] the figure was 18 µM.
For `COc1cc(OCc2cccc(CNC(=O)OC(C)(C)C)c2)c(Cl)cc1C(=O)N[C@H]1[C@@H](OC)O[C@H](CO)[C@@H](O)[C@@H]1O` [Example 357], the IC50 stood at 0.9 µM.
With `COc1cc(OCc2ccccc2)ccc1C(=O)N[C@H]1[C@@H](OC)O[C@H](CO)[C@@H](O)[C@@H]1O` [Example 358] the figure was 91.4 µM.
Regarding `COc1cc(OCc2cccc(NC(=O)OC(C)(C)C)c2)c(Cl)cc1C(=O)N[C@H]1[C@@H](OC)O[C@H](CO)[C@@H](O)[C@@H]1O` [Example 359], the IC50 worked out at 0.4 µM.
With `COc1cc(OCc2cccc(CNC(=O)CCC(=O)OC(C)(C)C)c2)c(Cl)cc1C(=O)O[C@@H]1[C@@H](O)[C@@H](OC)O[C@H](CO)[C@H]1O` [Example 363] the figure was 27.4 µM; with `C#CCCCCCCCn1c(COc2c(Cl)cc(C(=O)N[C@H]3[C@@H](OC)O[C@H](CO)[C@@H](O)[C@@H]3O)c(C)c2Cl)nc2ccccc21` [Example 368], 1.1 µM; with `COC(=O)[C@H](CCC(=O)NCc1cccc(COc2cc(OC)c(C(=O)O[C@H]3[C@@H](OC)O[C@H](CO)[C@@H](O)[C@@H]3O)cc2Cl)c1)NC(=O)OC(C)(C)C` [Example 369], 11.2 µM.
With `COC(=O)[C@@H](N)CCCCNC(=O)CCCCCn1c(COc2c(Cl)cc(C(=O)N[C@H]3[C@@H](OC)O[C@H](CO)[C@@H](O)[C@@H]3O)c(C)c2Cl)nc2ccccc21` [Example 384] the figure was 44.2 µM; with `COC(=O)[C@H](CCCCNC(=O)CCC(=O)NCc1cccc(COc2cc(OC)c(C(=O)O[C@H]3[C@@H](OC)O[C@H](CO)[C@@H](O)[C@@H]3O)cc2Cl)c1)NC(=O)OC(C)(C)C` [Example 385], 22.3 µM.
With `COc1cc(OCc2ccc(OCC(=O)OC(C)(C)C)cc2)c(Cl)cc1C(=O)N[C@H]1[C@@H](OC)O[C@H](CO)[C@@H](O)[C@@H]1O` [Example 387] the figure was 2.6 µM; with `COC(=O)[C@H](CCCCNC(=O)CNc1cc(COc2c(Cl)cc(C(=O)N[C@H]3[C@@H](OC)O[C@H](CO)[C@@H](O)[C@@H]3O)c(C)c2Cl)cnc1OC)NC(=O)OC(C)(C)C` [Example 388], 52.9 µM; with `COc1cc(OCc2cccc(CNC(=O)CCC(=O)NCCCCCC(=O)OC(C)(C)C)c2)c(Cl)cc1C(=O)O[C@H]1[C@@H](OC)O[C@H](CO)[C@@H](O)[C@@H]1O` [Example 390], 7.1 µM.
On to `COC(=O)[C@H](CCCCNC(=O)CCCC(=O)NCc1cccc(COc2cc(OC)c(C(=O)O[C@H]3[C@@H](OC)O[C@H](CO)[C@@H](O)[C@@H]3O)cc2Cl)c1)NC(=O)OC(C)(C)C` [Example 391], for which the IC50 stood at 34.3 µM.
The value for `COc1cc(OCc2cccc(OCCCCCC(=O)OC(C)(C)C)c2)c(Cl)cc1C(=O)N[C@H]1[C@@H](OC)O[C@H](CO)[C@@H](O)[C@@H]1O` [Example 394] was 4 µM.
With `COc1cc(OCc2ccc(OCC(=O)OC(C)(C)C)cc2)c(Cl)cc1C(=O)O[C@H]1[C@@H](OC)O[C@H](CO)[C@@H](O)[C@@H]1O` [Example 395] the figure was 1.5 µM; with `COC(=O)c1cccn2cc(COc3cc(OC)c(C(=O)N[C@H]4[C@@H](OC)O[C@H](CO)[C@@H](O)[C@@H]4O)cc3Cl)nc12` [Example 396], 17.3 µM.
